Paper PMC7891422, “Tryptophan Analogues with Fixed Side‐Chain Orientation: Expanding the Scope” (Chembiochem, 2020)

Target: T1, ghrelin receptor (Homo sapiens, UniProt Q92847)
T1 construct: expressed in transfected cells; host or cells: COS7 cells (stably transfected)
Assay: IP‐One assay (Cisbio IP-One Gq kit), inverse agonist activity
Assay type: cell-based
Details: mean±SEM of at least two independent experiments
Experimental: The four peptides and two known inverse agonists were tested towards their activity on the ghrelin receptor that was stably transfected in COS7 cells and examined in the Cisbio IP‐One assay as described in the supplementary section.
The assay was carried out in COS7 cells that were stably transfected with the ghrelin receptor. Data are the mean ±SEM of at least two independent experiments performed in triplicate.
IP-One assay COS7 cells stably transfected with the ghrelin receptor fused C-terminally to eYFP were cultured in a humidified atmosphere at 37 °C and 5% CO2 in Dulbecco's modified Eagle's medium with higher glucose supplemented with 10% (v/v) FCS and 0.4 mg/ml hygromycin B. Cisbio IP-One Gq assay kit was used according to previous description.[4] Shortly, 10000 cells/well were seeded out in a 384-well flat white plate and on the next day, stimulation was carried out in triplicates for 3h. 3 µl IP1-d2 and 3 µl Ab-cryptate were added and incubated on a tumbler for 60 min. Fluorescence was measured at 620 nm and 665 nm. HTRF ratio was calculated as the ratio 665/620. Obtained data were analyzed with GraphPad Prism 5.0 (GraphPad Software, San Diego, USA)
Emax is the efficacy of the peptide and represents the difference between constitutive activity and activity at maximal effect of the peptide. EC50 is the peptide concentration at half-

T1 sequence (Q92847 whole entry, species assumed): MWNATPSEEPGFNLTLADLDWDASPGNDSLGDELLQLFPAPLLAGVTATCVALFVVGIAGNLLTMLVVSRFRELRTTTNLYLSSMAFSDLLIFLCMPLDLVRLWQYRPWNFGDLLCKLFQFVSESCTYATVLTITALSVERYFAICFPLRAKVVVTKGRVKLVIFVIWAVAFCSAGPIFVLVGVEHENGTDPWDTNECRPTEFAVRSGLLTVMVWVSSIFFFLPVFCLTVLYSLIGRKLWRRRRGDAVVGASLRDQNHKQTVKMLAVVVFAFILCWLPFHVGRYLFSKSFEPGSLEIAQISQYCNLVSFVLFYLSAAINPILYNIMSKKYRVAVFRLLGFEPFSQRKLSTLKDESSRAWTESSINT

SMILES: CC(C)C[C@H](NC(=O)[C@H](CC(C)C)NC(=O)[C@@H](Cc1c[nH]c2ccccc12)NC(=O)[C@H](Cc1ccccc1)NC(=O)[C@@H](Cc1c[nH]c2ccccc12)NC(=O)[C@@H](N)CCCCN)C(N)=O [Peptide 4, KwFwLL‐NH2]
- E max±SEM (efficacy = difference between constitutive activity and activity at maximal effect, normalized to KbFwLL‐NH2 (3)): 66±3 Δ%
- EC50 (inverse agonism, COS7 cells stably transfected with ghrelin receptor-eYFP, 3 h stimulation): 234 nM
